Assay results from patent publication US20060240463A1, “Markers associated with the therapeutic efficacy of glatiramer acetate” (Rappaport Family Institute for Research in the Medical …, priority 2005, published 2006).

Assays:
RR-MS = settings: in vivo; cited from earlier work
dendritic cells = settings: through modulation of dendritic cells; cited from earlier work
[1] = test system: murine models resembling inflammatory bowel disease; settings: severe ulceration and inflammation; cited from earlier work
RR-MS patients [2] = experiment: European/Canadian MRI trial, GA-treated PGx cohort: response by SNP genotype ("T1 lesion-free" response definition); type: in vivo, human
Text: (§1) Two clinical trials, the European/Canadian trial and U.S. pivotal trial, were used to identify associations between GA responsiveness and SNPs in RR-MS patients. Caucasian patients, that had participated in one of two previously completed randomized, double blind, placebo-controlled, multi-centric clinical trials, were solicited to partake in the present study. In both clinical trials, patients were required to have a diagnosis of definite MS (Poser C M, et al. Ann Neurol., 13(3):227-31 (1983) and a relapsing-remitting course (Lublin F D and Reingold S C, Neurology 46(4):907-11 (1996). Ultimately, 73 and 101 DNA samples of Caucasian patients from the U.S. pivotal and European/Canadian MRI trials, respectively, were analyzed. GA dosage was consistent for both trials (i.e. daily 20-mg subcutaneous injection). Table I compares multiple variables between the general cohort study and the PGx cohort study for the European/Canadian trial and the U.S. pivotal trial.
(§2) Subjects were selected from two previously completed randomized, double blind, placebo-controlled, multi-centric clinical trials. In both clinical trials, patients were required to have a diagnosis of definite MS (Poser C M, et al. New diagnostic criteria for multiple sclerosis: guidelines for research protocols. Ann Neurol., (1983);13(3):227-31) and a relapsing-remitting course (Lublin F D, Reingold S C. Defining the clinical course of multiple sclerosis: results of an international survey. National Multiple Sclerosis Society (USA) Advisory Committee on Clinical Trials of New Agents in Multiple Sclerosis. Neurology, (1996);46(4):907-11) 85 (33.9%) out of 251 patients from the U.S. pivotal trial (Johnson K P, et al. Copolymer 1 reduces relapse rate and improves disability in relapsing-remitting multiple sclerosis: results of a phase 111 multicenter, double-blind placebo-controlled trial. The Copolymer 1 Multiple Sclerosis Study Group. Neurology, (1995);45(7):1268-76; Johnson K P, et al. Extended use of glatiramer acetate (COPAXONE) is well tolerated and maintains its clinical effect on multiple sclerosis relapse rate and degree of disability. Copolymer 1 Multiple Sclerosis Study Group. Neurology, (1998);50(3):701-8), and 108 (45.2%) out of 239 patients from the European/Canadian MRI trial (Comi G, Filippi M, Wolinsky J S. European/Canadian multicenter, double-blind, randomized, placebo-controlled study of the effects of glatiramer acetate on magnetic resonance imaging—measured disease activity and burden in patients with relapsing multiple sclerosis. European/Canadian glatiramer acetate Study Group. Ann Neurol., (2001);49(3):290-7) (including patients from Holland, Italy, Belgium, UK, Canada) consented to participate in this study. The same dosage of GA (i.e. daily 20-mg subcutaneous injection) was used in both trials. Although in the original trials patients were equally assigned to either GA- or placebo-treatment, the ratios in the current PGx study were 37:36 and 4952, for the U.S. pivotal and the European/Canadian MRI trials, respectively. Table I indicates various variables between the General Cohort study and the PGx Cohort study for both the European/Canadian trial and the U.S. pivotal trial.
(§3) The primary endpoint in the European/Canadian MRI trial was the accumulated number of TI-enhancing lesions during 9 months, and an additional inclusion criterion was used calling for the presence of at least one TI-enhancing lesion on MRI screening. The primary end-point for the U.S. pivotal trial was the annualized relapse-rate after two years of treatment.
(§4) The procedure used stringent definitions for response to GA therapy. […] For validation purposes response was also treated as a continuous variable where number of new T1-enhancing lesions within the third trimester was analyzed as the […] variable. […]

[3] = test system: MHC class II molecules on murine and human antigen-presenting cells; settings: cited from earlier work
RR-MS patients [4] = experiment: European/Canadian MRI trial, GA-treated PGx cohort: response by SNP genotype ("combined" response definition); type: in vivo, human
Text: as §1, §2, §3, §4

[5] = test system: skin graft, thyroid grafts; settings: across minor and major histocompatibility barriers; cited from earlier work
[6] = TCRB_rs71878, GEN = 0, GA(N = 43)
[7] = TCRB_rs71878, GEN = 1, GA(N = 43)
[8] = TCRB_rs71878, GEN = 2, GA(N = 43)
[9] = CD80_rs527004, GEN = 0, GA(N = 41)
[10] = CD80_rs527004, GEN = 1, GA(N = 41)
[11] = CD86_rs1129055, GEN = 0, GA(N-35)
[12] = CD86_rs1129055, GEN = 1, GA(N-35)
[13] = CD86_rs1129055, GEN = 2, GA(N-35)
[14] = CD86_rs2001791, GEN = 0, GA(N = 48)
[15] = CD86_rs2001791, GEN = 1, GA(N = 48)
[16] = CD86_rs2001791, GEN = 2, GA(N = 48)
[17] = CD95_rs9827641, GEN = 0, GA(N-47)
[18] = CD95_rs9827641, GEN = 1, GA(N-47)
[19] = CTSS_rs1415148, GEN = 0, GA(N = 47)
[20] = CTSS_rs1415148, GEN = 1, GA(N = 47)
[21] = CTSS_rs1415148, GEN = 2, GA(N = 47)
[22] = CTSS_rs2275235, GEN = 0, GA(N = 43)
[23] = CTSS_rs2275235, GEN = 1, GA(N = 43)
[24] = CTSS_rs2275235, GEN = 2, GA(N = 43)
[25] = MBP_rs470929, GEN = 0, GA(N-32)
[26] = MBP_rs470929, GEN = 1, GA(N-32)
[27] = MBP_rs470929, GEN = 2, GA(N-32)

Substance: glatiramer acetate [GA]
- relapse rate and CNS activity (RR-MS): effectiveness in reducing relapse rate and CNS activity
- Th2 cell development and IL-10 production (dendritic cells): promotes T helper 2 (Th2) cell development and increased IL-10 production
- macroscopic colonic damage [1]: reduce macroscopic colonic damage
- percentage of responders out of carriers of genotype (RR-MS patients [2]; [6]): 62.07%
- responders/carriers of genotype (RR-MS patients [2]; [6]): 18/29
- percentage of responders out of carriers of genotype (RR-MS patients [2]; [7]): (90%)
- responders/carriers of genotype (RR-MS patients [2]; [7]): 9/10
- percentage of responders out of carriers of genotype (RR-MS patients [2]; [8]): (100%)
- responders/carriers of genotype (RR-MS patients [2]; [8]): 4/4
- binding to MHC class II molecules [3]: very rapid, high, and efficient binding
- percentage of responders out of carriers of genotype (RR-MS patients [4]; [9]): (35.29%)
- responders/carriers of genotype (RR-MS patients [4]; [9]): 12/34
- percentage of responders out of carriers of genotype (RR-MS patients [4]; [10]): 85.71%
- responders/carriers of genotype (RR-MS patients [4]; [10]): 6/7
- responders/carriers of genotype (RR-MS patients [4]; CD80_rs527004, GEN = 2, GA(N = 41)): 0/0
- percentage of responders out of carriers of genotype (RR-MS patients [4]; [11]): (16.67%)
- responders/carriers of genotype (RR-MS patients [4]; [11]): 3/18
- percentage of responders out of carriers of genotype (RR-MS patients [4]; [12]): (60%)
- responders/carriers of genotype (RR-MS patients [4]; [12]): 9/15
- percentage of responders out of carriers of genotype (RR-MS patients [4]; [13]): (50%)
- responders/carriers of genotype (RR-MS patients [4]; [13]): 1/2
- percentage of responders out of carriers of genotype (RR-MS patients [4]; [14]): (28.21%)
- responders/carriers of genotype (RR-MS patients [4]; [14]): 11/39
- percentage of responders out of carriers of genotype (RR-MS patients [4]; [15]): 62.5%)
- responders/carriers of genotype (RR-MS patients [4]; [15]): 5/8
- percentage of responders out of carriers of genotype (RR-MS patients [4]; [16]): (100%)
- responders/carriers of genotype (RR-MS patients [4]; [16]): 1/1
- percentage of responders out of carriers of genotype (RR-MS patients [4]; [17]): (22.53%)
- responders/carriers of genotype (RR-MS patients [4]; [17]): 5/24
- percentage of responders out of carriers of genotype (RR-MS patients [4]; [18]): (31.25%)
- responders/carriers of genotype (RR-MS patients [4]; [18]): 5/16
- percentage of responders out of carriers of genotype (RR-MS patients [4]; CD95_rs9827641, GEN = 2, GA(N-47)): ((71.43%)^
- percentage of responders out of carriers of genotype (RR-MS patients [4]; [19]): (15%)
- responders/carriers of genotype (RR-MS patients [4]; [19]): 3/20
- percentage of responders out of carriers of genotype (RR-MS patients [4]; [20]): (42.86%)
- responders/carriers of genotype (RR-MS patients [4]; [20]): 9/21
- percentage of responders out of carriers of genotype (RR-MS patients [4]; [21]): (83.33%)
- responders/carriers of genotype (RR-MS patients [4]; [21]): 5/6
- percentage of responders out of carriers of genotype (RR-MS patients [4]; [22]): (19.35%)
- responders/carriers of genotype (RR-MS patients [4]; [22]): 6/31
- percentage of responders out of carriers of genotype (RR-MS patients [4]; [23]): (66.67%)
- responders/carriers of genotype (RR-MS patients [4]; [23]): 4/6
- percentage of responders out of carriers of genotype (RR-MS patients [4]; [24]): (83.33%)
- responders/carriers of genotype (RR-MS patients [4]; [24]): 5/6
- percentage of responders out of carriers of genotype (RR-MS patients [4]; [25]): (18.18%)
- responders/carriers of genotype (RR-MS patients [4]; [25]): 2/11
- percentage of responders out of carriers of genotype (RR-MS patients [4]; [26]): (43.75%)
- responders/carriers of genotype (RR-MS patients [4]; [26]): 7/16
- percentage of responders out of carriers of genotype (RR-MS patients [4]; [27]): (100%)
- responders/carriers of genotype (RR-MS patients [4]; [27]): 5/5
- amelioration of graft rejection [5]: prolongation of skin graft survival and inhibition of functional deterioration of thyroid grafts
